How the values were obtained:
GPR3 = target: T1, GPR3 (Homo sapiens, UniProt P46089); assay: GPR3 antagonist functional cAMP assay (LANCE Ultra cAMP TR-FRET, CHO cells stably expressing GPR3); assay type: cell-based
T1 construct: expressed in transfected cells; host or cells: CHO cells
In short: (§1)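 cAMP quantified by TR-FRET immunoassay after 45 min compound treatment at 37° C of CHO cells stably expressing GPR3 or GPR6, in PDE-inhibitor (Ro 20-1724, 150 μM) buffer with 0.1% BSA. Data scaled between DMSO (0%) and reference compounds (100%); antagonist IC50 by 4-parameter logistic fit.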

GPR6 = target: T2, GPR6 (Homo sapiens, UniProt P46095); assay: GPR6 antagonist functional cAMP assay (LANCE Ultra cAMP TR-FRET, CHO cells stably expressing GPR6); assay type: cell-based
T2 construct: expressed in transfected cells; host or cells: CHO cells
In short: as §1

[1] = CHO cells stably expressing GPR3, cAMP assay (Example 24)
[2] = CHO cells stably expressing GPR6, cAMP assay (Example 24)
[3] = CHO cells stably expressing GPR3, cAMP assay
[4] = CHO cells stably expressing GPR6, cAMP assay
[5] = procedure as described in Example 24

T1 sequence (P46089 whole entry, species assumed): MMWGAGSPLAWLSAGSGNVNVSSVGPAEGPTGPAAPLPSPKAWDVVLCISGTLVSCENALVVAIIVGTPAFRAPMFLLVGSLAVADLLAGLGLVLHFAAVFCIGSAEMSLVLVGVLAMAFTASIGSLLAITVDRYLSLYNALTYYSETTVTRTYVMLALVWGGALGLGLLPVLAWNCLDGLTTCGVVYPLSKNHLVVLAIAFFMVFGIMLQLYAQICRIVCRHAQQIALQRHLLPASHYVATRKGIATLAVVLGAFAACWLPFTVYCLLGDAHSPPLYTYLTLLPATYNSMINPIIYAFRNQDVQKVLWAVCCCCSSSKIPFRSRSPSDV
T2 sequence (P46095 whole entry): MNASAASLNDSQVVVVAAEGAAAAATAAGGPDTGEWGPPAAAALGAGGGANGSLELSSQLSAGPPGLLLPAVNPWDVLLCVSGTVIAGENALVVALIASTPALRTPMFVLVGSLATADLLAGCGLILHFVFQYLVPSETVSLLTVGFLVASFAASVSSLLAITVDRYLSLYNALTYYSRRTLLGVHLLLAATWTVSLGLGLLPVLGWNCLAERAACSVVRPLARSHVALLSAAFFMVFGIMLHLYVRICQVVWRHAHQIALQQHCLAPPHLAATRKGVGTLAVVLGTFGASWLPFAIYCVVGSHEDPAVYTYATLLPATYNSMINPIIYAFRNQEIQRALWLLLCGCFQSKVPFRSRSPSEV

| IC50 (GPR3; [1]) [nM] | IC50 (GPR6; [2]) [nM] | also measured | SMILES |
| --- | --- | --- | --- |
| 1000 to 30000 | 1000 to 30000 | – | CC(=O)N1CCc2nc(N3CCC(Oc4ccc(F)cc4F)CC3)c(-c3cccc(CO)n3)nc2C1 [Compound 133, 1-(2-(4-(2,4-difluorophenoxy)piperidin-1-yl)-3-(6-(hydroxymethyl)pyridin-2-yl)-7,8-dihydropyrido[3,4-b]pyrazin-6(5H)-yl)ethan-1-one] |
| – | – | IC50 (GPR3; procedure of Example 24): 1000 to 30000 nM; IC50 (GPR6; procedure of Example 24): 1000 to 30000 nM | CC(=O)N1CCc2nc(N3CCN(Cc4cc(C#N)ccc4F)CC3)c(-c3cnn(C)c3)nc2C1 [Compound 357, 3-({4-[6-acetyl-3-(1-methyl-1H-pyrazol-4-yl)-5H,6H,7H,8H-pyrido[3,4-b]pyrazin-2-yl]piperazin-1-yl}methyl)-4-fluorobenzonitrile] |
| – | – | IC50 (GPR3; [3]): ≥ 30000 nM; IC50 (GPR6; [4]): ≥ 30000 nM | CC(=O)N1CCc2nc(N3CCN(Cc4cccc(=O)n4C)CC3)c(-c3cnn(C)c3)nc2C1 [Compound 533, 6-({4-[6-acetyl-3-(1-methyl-4-pyrazolyl)-5,6,7,8-tetrahydro-1,4,6-triaza-2-naphthyl]-1-piperazinyl}methyl)-1-methyl-2(1H)-pyridinone] |
| 1000 to 30000 | 1000 to 30000 | – | CC(=O)N1CCc2nc(N3CCN(Cc4ccc(F)cc4)CC3)c(-c3cnn(C)c3)nc2C1 [Compound 257, 1-(2-{4-[(4-fluorophenyl)methyl]piperazin-1-yl}-3-(1-methyl-1H-pyrazol-4-yl)-5H,6H,7H,8H-pyrido[3,4-b]pyrazin-6-yl)ethan-1-one] |
| 1000 to 30000 | 100 to 1000 | – | CS(=O)(=O)N1CCc2nc(N3CCC(Oc4ccc(F)cc4F)CC3)c(-c3cn[nH]c3)nc2C1 [Compound 70, 2-(4-(2,4-difluorophenoxy)piperidin-1-yl)-6-(methylsulfonyl)-3-(1H-pyrazol-4-yl)-5,6,7,8-tetrahydropyrido[3,4-b]pyrazine] |
| 1000 to 30000 | < 100 | – | CC(=O)N1CCc2nc(N3CCC(Oc4ccc(F)cc4F)CC3)c(-c3cnn(C(C)C)c3)nc2C1 [Compound 165, 1-{2-[4-(2,4-difluorophenoxy)piperidin-1-yl]-3-[1-(propan-2-yl)-1H-pyrazol-4-yl]-5H,6H,7H,8H-pyrido[3,4-b]pyrazin-6-yl}ethan-1-one] |
| – | – | IC50 (GPR3; procedure of Example 24): 1000 to 30000 nM; IC50 (GPR6; procedure of Example 24): 100 to 1000 nM | Cn1cc(-c2nc3cnc(C(C)(O)C(C)(C)O)cc3nc2N2CCN(Cc3ccc(F)cc3F)CC2)cn1 (centres unmarked) [Compound 617, 2-(2-{4-[(2,4-difluorophenyl)methyl]-1-piperazinyl}-3-(1-methyl-4-pyrazolyl)-1,4,6-triaza-7-naphthyl)-3-methyl-2,3-butanediol] |
| 1000 to 30000 | 100 to 1000 | – | Cn1cc(-c2nc3cnc(C4CNC(=O)CO4)cc3nc2N2CCC(Oc3ccc(F)cc3F)CC2)cn1 (centres unmarked) [Compound 464, 6-(2-(4-(2,4-difluorophenoxy)piperidin-1-yl)-3-(1-methyl-1H-pyrazol-4-yl)pyrido[3,4-b]pyrazin-7-yl)morpholin-3-one] |
| 1000 to 30000 | 100 to 1000 | – | CCn1cc(-c2nc3c(nc2N2CCC(Oc4ccc(F)cc4F)CC2)CCN(S(N)(=O)=O)C3)cn1 [Compound 478, 2-(4-(2,4-difluorophenoxy)piperidin-1-yl)-3-(1-ethyl-1H-pyrazol-4-yl)-7,8-dihydropyrido[3,4-b]pyrazine-6(5H)-sulfonamide] |
| – | – | IC50 (GPR3; [3]): 1000 to 30000 nM; IC50 (GPR6; [4]): < 100 nM | CCn1cc(-c2nc3cnc([C@@H](O)C(C)(C)O)cc3nc2N2CCC(Oc3ccc(F)cc3F)CC2)cn1 (single isomer, unassigned) [Compound 570] |
| 1000 to 30000 | 1000 to 30000 | – | CNC(=O)CN1CCc2nc(N3CCC(Oc4ccc(F)cc4F)CC3)c(-c3cnn(C4CCCCO4)c3)nc2C1 (centres unmarked) [Compound 144, 2-{2-[4-(2,4-difluorophenoxy)piperidin-1-yl]-3-[1-(oxan-2-yl)-1H-pyrazol-4-yl]-5H,6H,7H,8H-pyrido[3,4-b]pyrazin-6-yl}-N-methylacetamide] |
| 1000 to 30000 | 1000 to 30000 | – | Cn1cc(-c2nc3cnc(OCCO)cc3nc2N2CCC(Oc3ccc(F)cc3F)CC2)cn1 [Compound 399, 2-({2-[4-(2,4-difluorophenoxy)piperidin-1-yl]-3-(1-methyl-1H-pyrazol-4-yl)pyrido[3,4-b]pyrazin-7-yl}oxy)ethan-1-ol] |
| – | – | IC50 (GPR3; procedure of Example 24): 1000 to 30000 nM; IC50 (GPR6; procedure of Example 24): ≥ 30000 nM | CC(=O)N1CCc2nc(N3CCCC(Oc4ccc(F)cc4)C3)c(-c3cnn(C)c3)nc2C1 (centres unmarked) [Compound 338, 1-{2-[3-(4-fluorophenoxy)piperidin-1-yl]-3-(1-methyl-1H-pyrazol-4-yl)-5H,6H,7H,8H-pyrido[3,4-b]pyrazin-6-yl}ethan-1-one] |
| – | – | IC50 (GPR3; [5]): 1000 to 30000 nM; IC50 (GPR6; [5]): 1000 to 30000 nM | Fc1ccc(OC2CCN(c3nc4ccncc4nc3-c3cnc[nH]3)CC2)c(F)c1 [Compound 54, 4-(2,4-difluorophenoxy)-1-[3-(1H-imidazol-5-yl)pyrido[3,4-b]pyrazin-2-yl]piperidine] |
| 1000 to 30000 | 100 to 1000 | – | Cn1cc(-c2nc3cnccc3nc2N2CCC(C)(Oc3ccc(F)cc3F)CC2)cn1 [Compound 188, 4-(2,4-difluorophenoxy)-4-methyl-1-[3-(1-methyl-1H-pyrazol-4-yl)pyrido[3,4-b]pyrazin-2-yl]piperidine] |
| – | – | IC50 (GPR3; procedure of Example 24): 1000 to 30000 nM; IC50 (GPR6; procedure of Example 24): < 100 nM | CC(=O)N1CCc2nc(N3CCC(C(=O)c4ccc(F)cc4F)CC3)c(-c3ccc(F)c(N)n3)nc2C1 [Compound 638, 1-{3-(6-amino-5-fluoro-2-pyridyl)-2-[4-(2,4-difluorobenzoyl)-1-piperidyl]-5,6,7,8-tetrahydro-1,4,6-triaza-6-naphthyl}-1-ethanone] |
| – | – | IC50 (GPR3; procedure of Example 24): 1000 to 30000 nM; IC50 (GPR6; procedure of Example 24): 1000 to 30000 nM | CC(=O)N1CCc2nc(N3CC[C@H](Oc4ccc(F)cc4F)[C@@H](F)C3)c(-c3cnn(C)c3)nc2C1 (single isomer, unassigned) [Compound 331] |
| 1000 to 30000 | 1000 to 30000 | – | COc1cccc(-c2nc3c(nc2N2CCC(Oc4ccc(F)cc4F)CC2)CCN(S(C)(=O)=O)C3)n1 [Compound 59, 2-(4-(2,4-difluorophenoxy)piperidin-1-yl)-3-(6-methoxypyridin-2-yl)-6-(methylsulfonyl)-5,6,7,8-tetrahydropyrido[3,4-b]pyrazine] |
| 1000 to 30000 | 1000 to 30000 | – | CC(=O)N1CCC(c2nc3c(nc2N2CCC(Oc4ccc(F)cc4F)CC2)CCN(C(C)=O)C3)CC1 [Compound 91, 1-(4-(6-acetyl-2-(4-(2,4-difluorophenoxy)piperidin-1-yl)-5,6,7,8-tetrahydropyrido[3,4-b]pyrazin-3-yl)piperidin-1-yl)ethan-1-one] |
| 1000 to 30000 | 1000 to 30000 | – | CC(=O)N1CCc2nc(N3CCC(Oc4ccc(F)cc4F)CC3)c(-c3ccnc(Cl)n3)nc2C1 [Compound 466, 1-[3-(2-chloropyrimidin-4-yl)-2-[4-(2,4-difluorophenoxy)piperidin-1-yl]-5H,6H,7H,8H-pyrido[3,4-b]pyrazin-6-yl]ethan-1-one] |
| – | – | IC50 (GPR3; [5]): 100 to 1000 nM; IC50 (GPR6; [5]): ≥ 30000 nM | CS(=O)(=O)c1ccc(CN2CCN(c3nc4ccncc4nc3-c3cn[nH]c3)CC2)c(F)c1 [Compound 22, 1-[(2-fluoro-4-methanesulfonylphenyl)methyl]-4-[3-(1H-pyrazol-4-yl)pyrido[3,4-b]pyrazin-2-yl]piperazine] |
| – | – | IC50 (GPR3; procedure of Example 24): 100 to 1000 nM; IC50 (GPR6; procedure of Example 24): 100 to 1000 nM | CC(C)(O)C(=O)c1cc2nc(-c3cnn(C(F)F)c3)c(N3CCN(Cc4ccc(F)cc4F)CC3)nc2cn1 [Compound 620, 1-{2-[1-(difluoromethyl)-4-pyrazolyl]-3-{4-[(2,4-difluorophenyl)methyl]-1-piperazinyl}-1,4,6-triaza-7-naphthyl}-2-hydroxy-2-methyl-1-propanone] |

Source: patent publication US20260042755A1, “GPR6 INVERSE AGONISTS” (MapLight Therapeutics, Inc., priority 2022, published 2026)
